Results as given in ChEMBL document CHEMBL4622833, “Bifunctional small molecule-oligonucleotide hybrid as microRNA inhibitor” (Bioorg Med Chem, 2020).
pIC50: −log10 of the molar value. The source made the active and inactive calls. The rule behind the calls is not given here. Numbered stars: 1 amine (or outer) side, 2 acyl side, 3 side chain; on linkers, the order of the positions; unused ones are H or OH. Square brackets hold non-standard residues; d marks the D form. Peptide text beside a SMILES is read from it. * marks the point of attachment. X6 = O=C1Cc2ccc(OCc3cn(N([C@@H](CS)C(=O)[*:2])[*:1])nn3)cc2C(=O)N1O; X3 = O=C1Cc2ccc(OCc3cn(N(CC(=O)[*:2])[*:1])nn3)cc2C(=O)N1O; X4 = C[C@@H](O)[C@@H](C(=O)[*:2])N(n1cc(CN[*:3])nn1)[*:1]; X7 = O=C([C@H](CS)N(n1cc(CCCC(=O)[*:3])nn1)[*:1])[*:2]; X1 = O=C([C@H](CS)N(n1cc(CN[*:3])nn1)[*:1])[*:2]; X5 = C[C@@H](C(=O)[*:2])N(n1cc(CN[*:3])nn1)[*:1]; X8 = O=C(NCCOCCOCCN*)c1ccc2c(c1)C(=O)N(O)C2=O; X2 = O=C1c2ccc(C(=O)*)cc2C(=O)N1O

Assays:
Assay type in all cases: nucleic-acid assay
microRNA 21 [1] = assay: Inhibition of Dicer mediated [32P] pre-miRNA-21 (unknown origin) maturation assessed as cleavage of pre-miRNA at 1000 uM after 2.5 hrs by denaturating polyacrylamide gel electrophoresis
Pre-miRNA-29b = assay: Inhibition of Dicer mediated [32P] pre-miRNA-29b-1 (unknown origin) maturation assessed as cleavage of pre-miRNA at 1 mM after 2.5 hrs by denaturating polyacrylamide gel electrophoresis
microRNA 21 [2] = assay: Inhibition of Dicer mediated [32P] pre-miRNA-21 (unknown origin) maturation assessed as cleavage of pre-miRNA at 50 uM after 2.5 hrs by denaturating polyacrylamide gel electrophoresis
microRNA 21 [3] = assay: Binding affinity to [32P]pre-miRNA-21(unknown origin) assessed as reduction in mobility by electrophoretic mobility shift assay
microRNA 21 [4] = assay: Inhibition of Dicer mediated [32P] pre-miRNA-21 (unknown origin) maturation assessed as cleavage of pre-miRNA after 2.5 hrs by denaturating polyacrylamide gel electrophoresis
microRNA 21 [5] = assay: Inhibition of Dicer mediated [32P] pre-miRNA-21 (unknown origin) maturation assessed as cleavage of pre-miRNA at 10 uM after 2.5 hrs by denaturating polyacrylamide gel electrophoresis
microRNA 21 [6] = assay: Inhibition of Dicer mediated [32P] pre-miRNA-21 (unknown origin) maturation assessed as cleavage of pre-miRNA at 1 to 100 uM after 2.5 hrs by denaturating polyacrylamide gel electrophoresis

SMILES	inhibition (microRNA 21 [2])	pIC50 (microRNA 21 [4])	other results
C#CCNC(=O)c1ccc2c(c1)C(=O)N(O)C2=O	–	–	inhibition (microRNA 21 [1]): inactive; inhibition (Pre-miRNA-29b): inactive
C[C@H](NC(=O)[C@H](CS)NC(=O)[C@H](C)NC(=O)[C@H](C)NC(=O)[C@H](CS)NC(=O)[C@@H](NC(=O)[C@@H](NC(=O)[C@H](C)NC(=O)CNC(=O)[C@H](C)NC(=O)CNC(=O)[C@@H](NC(=O)[C@H](C)NC(=O)[C@H](CS)Nn1cc(CNC(=O)c2ccc3c(c2)C(=O)N(O)C3=O)nn1)[C@@H](C)O)[C@@H](C)O)[C@@H](C)O)C(=O)O (H-[X1](X2)ATGAGATTCAACA-OH)	Active	5.37	Activity (microRNA 21 [3]): Active; inhibition (microRNA 21 [5]): Active
C[C@H](NC(=O)[C@H](CS)NC(=O)[C@H](C)NC(=O)[C@H](C)NC(=O)[C@H](CS)NC(=O)[C@@H](NC(=O)[C@@H](NC(=O)[C@H](C)NC(=O)CNC(=O)[C@H](C)NC(=O)CNn1cc(COc2ccc3c(c2)C(=O)N(O)C(=O)C3)nn1)[C@@H](C)O)[C@@H](C)O)C(=O)O (H-[X3]AGATTCAACA-OH)	–	6.30	inhibition (microRNA 21 [4]): Dose-dependent effect
C[C@H](NC(=O)[C@H](CS)NC(=O)[C@H](C)NC(=O)[C@H](C)NC(=O)[C@H](CS)NC(=O)[C@@H](NC(=O)[C@@H](NC(=O)[C@H](C)NC(=O)CNC(=O)[C@H](C)NC(=O)CNC(=O)[C@@H](Nn1cc(CNC(=O)c2ccc3c(c2)C(=O)N(O)C3=O)nn1)[C@@H](C)O)[C@@H](C)O)[C@@H](C)O)C(=O)O (H-[X4](X2)GAGATTCAACA-OH)	Active	–	–
C[C@H](NC(=O)[C@H](CS)NC(=O)[C@H](C)NC(=O)[C@H](C)NC(=O)[C@H](CS)NC(=O)[C@@H](NC(=O)[C@@H](NC(=O)[C@H](C)NC(=O)CNC(=O)[C@H](C)Nn1cc(CNC(=O)c2ccc3c(c2)C(=O)N(O)C3=O)nn1)[C@@H](C)O)[C@@H](C)O)C(=O)O (H-[X5](X2)GATTCAACA-OH)	Active	–	–
C[C@H](NC(=O)[C@H](CS)NC(=O)[C@H](C)NC(=O)[C@H](C)NC(=O)[C@H](CS)NC(=O)[C@@H](NC(=O)[C@@H](NC(=O)[C@H](C)NC(=O)CNC(=O)[C@H](C)NC(=O)CNC(=O)[C@@H](NC(=O)[C@H](C)NC(=O)[C@H](CS)Nn1cc(COc2ccc3c(c2)C(=O)N(O)C(=O)C3)nn1)[C@@H](C)O)[C@@H](C)O)[C@@H](C)O)C(=O)O (H-[X6]ATGAGATTCAACA-OH)	–	5.48	–
C[C@H](NC(=O)[C@H](CS)NC(=O)[C@H](C)NC(=O)[C@H](C)NC(=O)[C@H](CS)NC(=O)[C@@H](NC(=O)[C@@H](NC(=O)[C@H](C)NC(=O)CNC(=O)[C@H](C)NC(=O)CNC(=O)[C@@H](NC(=O)[C@H](C)NC(=O)[C@H](CS)Nn1cc(CCCC(=O)NCCOCCOCCNC(=O)c2ccc3c(c2)C(=O)N(O)C3=O)nn1)[C@@H](C)O)[C@@H](C)O)[C@@H](C)O)C(=O)O (H-[X7](X8)ATGAGATTCAACA-OH)	–	–	inhibition (microRNA 21 [6]): inactive
